Results from patent US20260200890A1, “ADAR1 INHIBITORS AND METHODS OF USING THE SAME” (AVAMMUNE THERAPEUTICS INC., priority 2022, published 2026).

Tests used:
ADAR1 = molecular target: T1, ADAR1 (Homo sapiens, UniProt P55265); assay: ADAR1 Inhibition Assay (IFN fold-induction, Quanti-Luc luminescence, p110 KO A549 dual cells); assay type: cell-based; conditions: IFN fold-induction vs DMSO, 24 and 48 h
T1 construct: endogenous in cells; host or cells: p110 KO A549 dual cells
T1 sequence (P55265 1-1226): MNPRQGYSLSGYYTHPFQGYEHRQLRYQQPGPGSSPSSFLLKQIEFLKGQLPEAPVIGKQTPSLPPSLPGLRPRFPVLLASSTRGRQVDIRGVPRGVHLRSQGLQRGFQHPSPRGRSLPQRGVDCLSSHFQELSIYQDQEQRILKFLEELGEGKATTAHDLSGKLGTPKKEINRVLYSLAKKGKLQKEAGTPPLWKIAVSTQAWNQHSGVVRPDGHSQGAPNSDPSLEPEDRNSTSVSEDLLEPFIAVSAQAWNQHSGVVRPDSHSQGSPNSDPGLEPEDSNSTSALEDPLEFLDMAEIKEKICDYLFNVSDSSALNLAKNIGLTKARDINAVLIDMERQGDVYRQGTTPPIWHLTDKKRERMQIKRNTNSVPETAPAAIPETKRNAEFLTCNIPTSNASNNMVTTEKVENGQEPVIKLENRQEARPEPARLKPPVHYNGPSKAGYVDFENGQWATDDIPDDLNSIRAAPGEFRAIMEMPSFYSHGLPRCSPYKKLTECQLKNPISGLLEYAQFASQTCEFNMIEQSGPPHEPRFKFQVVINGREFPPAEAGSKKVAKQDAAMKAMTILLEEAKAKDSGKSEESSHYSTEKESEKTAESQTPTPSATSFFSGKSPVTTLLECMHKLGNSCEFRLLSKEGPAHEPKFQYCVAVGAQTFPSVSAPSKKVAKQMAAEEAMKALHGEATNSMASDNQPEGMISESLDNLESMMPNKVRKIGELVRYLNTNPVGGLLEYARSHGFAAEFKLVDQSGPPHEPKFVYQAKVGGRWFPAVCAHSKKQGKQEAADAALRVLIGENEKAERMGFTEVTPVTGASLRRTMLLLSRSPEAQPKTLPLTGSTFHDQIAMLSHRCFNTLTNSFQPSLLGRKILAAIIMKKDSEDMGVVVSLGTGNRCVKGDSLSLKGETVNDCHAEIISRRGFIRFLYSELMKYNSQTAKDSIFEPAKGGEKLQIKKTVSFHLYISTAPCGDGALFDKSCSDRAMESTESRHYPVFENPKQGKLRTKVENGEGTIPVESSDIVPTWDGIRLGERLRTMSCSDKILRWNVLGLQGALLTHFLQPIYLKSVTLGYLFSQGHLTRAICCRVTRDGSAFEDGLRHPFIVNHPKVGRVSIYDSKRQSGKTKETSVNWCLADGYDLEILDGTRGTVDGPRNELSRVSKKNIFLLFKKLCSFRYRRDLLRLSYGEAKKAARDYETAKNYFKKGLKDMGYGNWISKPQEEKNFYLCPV
Procedure, shortened: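 p110 KO A549 dual cells (20,000/well) in supplemented DMEM, treated next day with compound at 1% final DMSO for 24 and 48 h at 37 °C, 5% CO2. Supernatant luminescence read with Quanti-Luc; IFN fold-induction = sample RLU/mean DMSO RLU, used for EC50.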

Zα domain of ADAR1 p150 = molecular target: T2, Zα domain of ADAR1 p150 (Homo sapiens, UniProt P55265); assay: SPR binding assay; conditions: 6× his tag Zα domain immobilized on CM5 chip, analyte 0-25 μM
T2 construct: 10 μg/ml of Zα domain of ADAR1 was immobilized on CM5 chip using anti-HIS antibody; made in house
T2 sequence (P55265 133-199 limits assumed): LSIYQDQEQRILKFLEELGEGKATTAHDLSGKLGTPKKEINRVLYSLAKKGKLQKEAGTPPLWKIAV
Method: 6× his tag Za domain of ADAR1 p150 was purified using bacterial purification system. Protein was isolated from supernatant of cell lysate using Ni-NTA resin. For binding assay using SPR, 10 μg/ml of Zα domain of ADAR1 was immobilized on CM5 chip using anti-HIS antibody. Binding was quantified using the following condition below: • Analyte: 25, 12.5, 6.25, 3.125, 1.56, 0.78, 0 μM • Contact time—60 seconds, • Dissociation time—320 seconds • Flow rate—30 μL/minute Running buffer-PBSP+5% DMSO • After curve fitting, Kd values for synthesized compounds was quantified using the instrument software.

SMILES | EC50 (ADAR1) [µM] | Kd (Zα domain of ADAR1 p150) [µM]
CCOC(=O)c1cc(-c2ccccc2)sc1NC(=O)COc1cccc(NS(C)(=O)=O)c1 [Compound 147] | > 100 | ≤ 1
CCOC(=O)c1cc(-c2ccccc2)sc1NC(=O)COC(=O)c1cccc(NC(C)=O)c1 [Compound 107] | > 100 | ≤ 1
CS(=O)(=O)Nc1cccc(C(=O)OCc2nc(=O)c3cc(-c4ccccc4)sc3[nH]2)c1 [Compound 241] | > 100 | ≤ 1
CCOC(=O)c1cc(-c2ccccc2)sc1NC(=O)COC(=O)c1cccc(NS(C)(=O)=O)c1 [Compound 121] | > 100 | ≤ 1
CCNC(=O)c1cc(-c2ccccc2)sc1NC(=O)CNC(=O)c1ccc(P(=O)(OCC)OCC)cc1 [Compound 437] | – | ≤ 1
CCOC(=O)c1cc(-c2ccccc2)sc1NC(=O)COC(=O)c1cccc(OS(=O)(=O)F)c1 [Compound 302] | – | ≤ 1
CCOC(=O)c1cc(-c2ccccc2)sc1NC(=O)CNC(=O)CCc1cccc(P(=O)(OCC)OCC)c1 [Compound 436] | – | ≤ 1
CCOC(=O)c1cc(-c2ccccc2)sc1NC(=O)CN(C)C(=O)c1cccc(S(N)(=O)=O)c1 [Compound 122] | > 100 | –
NS(=O)(=O)c1cccc(NC(=O)CNC(=O)c2ccc(-c3ccccc3)s2)c1 [Compound 40] | > 100 | –
CCOC(=O)c1cc(-c2ccc(F)cc2)sc1NC(=O)COC(=O)c1cccc(S(N)(=O)=O)c1 [Compound 75] | ≤ 25 | –
CS(=O)(=O)Nc1cccc(C(=O)OCC(=O)n2cnc3cnc(N)nc32)c1 [Compound 200] | > 100 | –
CCOC(=O)c1cc(-c2ccc(S(C)(=O)=O)cc2)sc1NC(=O)COC(=O)c1cccc(NS(C)(=O)=O)c1 [Compound 103] | > 100 | –
CCOC(=O)c1cc(-c2ccccc2)sc1NC(=O)COC(=O)c1cccc(S(=O)(=O)N(C)C)c1 [Compound 7] | > 100 | –
CCOC(=O)c1cc(-c2ccccc2)sc1NC(=O)C1CCN(S(=O)(=O)c2cccc(NS(C)(=O)=O)c2)C1 (stereo not drawn) [Compound 227] | > 100 | –
CCOC(=O)c1cc(-c2ccccc2)sc1NC(=O)CNC(=O)c1ccc(F)c(S(N)(=O)=O)c1 [Compound 31] | > 100 | –
CCOC(=O)c1cc(-c2ccccc2)sc1NC(=O)C1CCCN(C(=O)c2cccc(S(N)(=O)=O)c2)C1 (stereo not drawn) [Compound 111] | > 100 | –
CCOC(=O)c1cc(-c2ccccc2)sc1NC(=O)COC(=O)c1cccc(CNS(C)(=O)=O)c1 [Compound 177] | > 100 | –
CCOC(=O)c1cc(-c2ccccc2)sc1NC(=O)CN(C)C [Compound 17] | > 100 | –

SMILES | EC50 (ADAR1) [µM] | Kd (Zα domain of ADAR1 p150) [µM]
CCOC(=O)c1cc(-c2ccc(P(=O)(OCC)OCC)cc2)sc1NC(=O)COC(=O)c1cccc(S(N)(=O)=O)c1 [Compound 429] | > 100 | –
CCOC(=O)c1cc(-c2ccccc2)sc1NC(=O)COC1CCN(S(C)(=O)=O)CC1 [Compound 160] | > 100 | –
CCOC(=O)c1cc(-c2ccc(C(F)(F)F)cc2)sc1NC(=O)COC(=O)c1cccc(NS(C)(=O)=O)c1 [Compound 106] | > 100 | –
NS(=O)(=O)c1cccc(C(=O)NCC(=O)Nc2nc3ccccc3s2)c1 [Compound 23] | > 100 | –
CCOC(=O)c1cc(-c2ccccc2)sc1NC(=O)CNS(=O)(=O)c1cccc(NS(C)(=O)=O)c1 [Compound 232] | > 100 | –
CCOC(=O)c1cc(-c2ccccc2)sc1NC(=O)c1cncc(-c2cccc(NS(C)(=O)=O)c2)n1 [Compound 264] | > 100 | –
CCOC(=O)c1ccc(-c2ccccc2)nc1NC(=O)COC(=O)c1cccc(NS(C)(=O)=O)c1 [Compound 113] | > 100 | –
CCOC(=O)c1cc(-c2ccccc2)sc1NC(=O)c1cnc(-c2cccc(NS(C)(=O)=O)c2)s1 [Compound 246] | > 100 | –
CCOC(=O)c1cc(-c2ccc(F)cc2)sc1NC(=O)C1CCCN1C(=O)c1cccc(NS(C)(=O)=O)c1 (stereo not drawn) [Compound 119] | > 100 | –
CCOC(=O)c1c(-c2ccccc2)noc1NC(=O)COC(=O)c1cccc(NS(C)(=O)=O)c1 [Compound 214] | > 100 | –
CCOC(=O)c1cc(-c2ccccc2)sc1NC(=O)CN(C(=O)c1cccc(NS(C)(=O)=O)c1)C(C)C [Compound 162] | > 100 | –
NS(=O)(=O)c1cccc(NC(=O)CNC(=O)c2csc(-c3cccnc3)n2)c1 [Compound 20] | > 100 | –
CCOC(=O)c1cc(P(=O)(OCC)OCC)sc1NC(=O)COC(=O)c1cccc(NS(C)(=O)=O)c1 [Compound 345] | > 100 | –
CCOC(=O)c1cc(-c2ccccc2)sc1NC(=O)CN(C)C(=O)c1cccc(P(=O)(OCC)OCC)c1 [Compound 392] | 50 to 100 | –
NS(=O)(=O)c1cccc(C(=O)NCC(=O)Nc2ccc(-c3ccccc3)s2)c1 [Compound 18] | > 100 | –
CS(=O)(=O)Nc1cccc(C(=O)OCC(=O)Nc2nnc(-c3ccccc3)s2)c1 [Compound 153] | ≤ 25 | –
CCOC(=O)c1cc(-c2ccccc2)sc1NC(=O)C1CCCN1C(=O)c1cccc(P(=O)(OCC)OCC)c1 (stereo not drawn) [Compound 383] | > 100 | –
CCOC(=O)c1cc(-c2ccccc2)sc1NC(=O)COC(=O)c1cc(NS(C)(=O)=O)c(F)cc1F [Compound 128] | > 100 | –

The remaining lines, values ahead:

EC50 (ADAR1) [µM] | Kd (Zα domain of ADAR1 p150) [µM] | SMILES
> 100 | ≤ 1 | CCOC(=O)c1cc(-c2ccccc2)sc1NC(=O)COC(=O)C1(c2cccc(NS(C)(=O)=O)c2)CCCC1 [Compound 396]
> 100 | ≤ 1 | CCOC(=O)c1cc(-c2ccccc2)sc1NC(=O)[C@H]1CCN(C(=O)c2cccc(S(=O)(=O)NC(C)=O)c2)C1 [Compound 428]
> 100 | ≤ 1 | CCOC(=O)c1cc(-c2ccccc2)sc1NC(=O)CNC(=O)Cc1ccc(S(N)(=O)=O)cc1 [Compound 363]
> 100 | ≤ 1 | CCOC(=O)c1cc(-c2ccccc2)sc1NC(=O)COC(=O)c1cccc(C(=O)OC)c1 [Compound 359]
> 100 | ≤ 1 | CCOC(=O)c1cc(-c2ccccc2)sc1NC(=O)CNC(=O)Cc1ccc(S(C)(=O)=O)cc1 [Compound 327]
– | ≤ 1 | CCOC(=O)c1cc(-c2ccccc2)sc1NC(=O)CNC(=O)CCc1cccc(P(=O)(O)O)c1 [Compound 432]
– | ≤ 1 | CCOC(=O)c1cc(-c2ccccc2)sc1NC(=O)CN(C)C(=O)c1cccc(P(=O)(O)O)c1 [Compound 435]
– | ≤ 1 | CCOC(=O)c1cc(-c2ccccc2)sc1NC(=O)CNC(=O)c1cccc(C(=O)O)c1 [Compound 439]
– | 1 to 10 | CCOC(=O)c1sc(-c2ccccc2)cc1NC(=O)CNC(=O)Cc1cccc(NS(C)(=O)=O)c1 [Compound 357]
> 100 | – | COC(=O)c1scc(-c2ccccc2)c1NC(=O)COC(=O)c1cccc(NS(C)(=O)=O)c1 [Compound 320]
> 100 | – | CCOC(=O)c1cc(-c2ccccc2)sc1NC(=O)Cn1cc(CS(=O)(=O)c2cccc(NS(C)(=O)=O)c2)nn1 [Compound 362]
≤ 25 | – | COC(=O)c1sc(-c2ccccc2)cc1NC(=O)COC(=O)c1cccc(NS(C)(=O)=O)c1 [Compound 311]
50 to 100 | – | CCOC(=O)c1cc(-c2ccccc2)sc1NC(=O)COC(=O)c1cccc(Br)c1 [Compound 314]
> 100 | – | CCOC(=O)c1cc(P(=O)(O)O)sc1NC(=O)COC(=O)c1cccc(NS(C)(=O)=O)c1 [Compound 391]
> 100 | – | CCOC(=O)c1cc(-c2ccccc2)sc1N1CCN(C(=O)c2cccc(NS(C)(=O)=O)c2)CC1 [Compound 279]
